Data: ChEMBL document CHEMBL1128364 (J Med Chem, 1995)

Tests used:
[1] = molecular target: T1, Vasopressin V1a receptor (Rattus norvegicus, UniProt P30560); test: Compound was evaluated for the anti-vasopressor activity at V1a receptor..; settings: read-out: pA2 (converted)
[2] = molecular target: T2, Oxytocin receptor (Rattus norvegicus, UniProt P70536); test: In vitro activity was determined for the anti-oxytocic activity with 0.5 mM Mg2+.; settings: read-out: pA2 (converted)
T2 sequence (P70536 whole entry): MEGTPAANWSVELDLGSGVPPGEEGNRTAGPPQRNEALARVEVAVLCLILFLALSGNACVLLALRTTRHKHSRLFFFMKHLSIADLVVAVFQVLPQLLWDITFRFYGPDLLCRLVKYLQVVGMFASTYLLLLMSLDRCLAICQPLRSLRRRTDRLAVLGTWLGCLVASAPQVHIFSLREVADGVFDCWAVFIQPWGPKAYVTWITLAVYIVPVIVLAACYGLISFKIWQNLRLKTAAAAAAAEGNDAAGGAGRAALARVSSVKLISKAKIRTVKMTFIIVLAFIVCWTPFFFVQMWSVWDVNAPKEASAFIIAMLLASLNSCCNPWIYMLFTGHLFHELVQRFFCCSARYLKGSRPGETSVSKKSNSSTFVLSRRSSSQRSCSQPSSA

[3] = molecular target: T2, Oxytocin receptor; test: In vitro activity for the anti-oxytocic activity with out Mg2+; settings: read-out: pA2 (converted)
[4] = molecular target: T3, Oxytocin receptor (Rattus norvegicus) (UniProt P70536); test: (§1) Compound was evaluated for the oxytocic activity with out Mg2+.
T3 sequence (whole entry): T2 sequence (P70536 whole entry)

[5] = molecular target: Vasopressin V2 receptor (Rattus norvegicus) (UniProt Q00788); test: Antidiuretic activity at V2 receptor.; settings: Urine
Vasopressin V2 receptor (Rattus norvegicus), sequence (Q00788 whole entry): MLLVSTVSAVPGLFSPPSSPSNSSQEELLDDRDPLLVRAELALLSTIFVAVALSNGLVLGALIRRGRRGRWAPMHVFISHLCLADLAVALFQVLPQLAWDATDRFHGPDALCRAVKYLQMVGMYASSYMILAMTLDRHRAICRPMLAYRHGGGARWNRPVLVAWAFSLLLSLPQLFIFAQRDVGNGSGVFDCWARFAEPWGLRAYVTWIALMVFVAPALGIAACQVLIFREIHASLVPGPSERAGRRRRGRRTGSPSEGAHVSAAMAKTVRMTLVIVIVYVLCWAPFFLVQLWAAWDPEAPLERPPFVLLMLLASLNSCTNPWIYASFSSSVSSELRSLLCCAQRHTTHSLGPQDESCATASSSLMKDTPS

[6] = molecular target: T3, Oxytocin receptor (Rattus norvegicus); test: (§2) Compound was evaluated for the oxytocic activity with 0.5 mM Mg2+.
[7] = molecular target: T1, Vasopressin V1a receptor; test: Anti-vasopressor activity at V1a receptor; settings: read-out: pA2 (converted)
[8] = molecular target: T2, Oxytocin receptor; test: In vitro activity for the anti-oxytocic activity with out Mg2+.; settings: read-out: pA2 (converted)
[9] = system: Rattus norvegicus; test: In vivo activity for the anti-oxytocic activity.; format: functional, organism-based; settings: read-out: pA2 (converted)
[10] = molecular target: Vasopressin V2 receptor (Rattus norvegicus, UniProt Q00788); test: Antidiuretic activity at V2 receptor; format: tissue-based, Urine; settings: read-out: pA2 (converted)
Vasopressin V2 receptor, sequence (Q00788 whole entry): as above

[11] = molecular target: T2, Oxytocin receptor; test: as §1; settings: read-out: pA2 (converted)
[12] = molecular target: T2, Oxytocin receptor; test: as §2; settings: read-out: pA2 (converted)

T1 sequence (P30560 whole entry): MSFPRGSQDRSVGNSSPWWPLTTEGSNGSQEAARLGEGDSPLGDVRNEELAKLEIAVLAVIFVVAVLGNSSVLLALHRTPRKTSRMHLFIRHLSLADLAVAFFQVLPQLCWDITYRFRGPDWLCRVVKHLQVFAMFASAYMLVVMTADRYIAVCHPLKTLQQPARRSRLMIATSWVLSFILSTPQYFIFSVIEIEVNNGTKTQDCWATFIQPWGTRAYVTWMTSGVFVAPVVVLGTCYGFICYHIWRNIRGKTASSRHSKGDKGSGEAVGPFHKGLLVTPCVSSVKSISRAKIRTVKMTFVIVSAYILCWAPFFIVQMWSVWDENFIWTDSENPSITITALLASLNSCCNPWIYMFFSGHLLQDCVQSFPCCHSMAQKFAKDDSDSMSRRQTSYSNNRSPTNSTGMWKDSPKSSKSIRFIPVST

SMILES: COc1ccc(C[C@@H]2NC(=O)CC3(CCCCC3)SSC[C@@H](C(=O)N3CCC[C@H]3C(=O)N[C@@H](CCCN=C(N)N)C(=O)NCC(N)=O)NC(=O)[C@H](CC(N)=O)NC(=O)[C@H](CCC(N)=O)NC(=O)[C@H](Cc3ccccc3)NC2=O)cc1
- Kb [1]: 2.4 nM
- Kb [2]: 57.5 nM
- Kb [3]: 7.41 nM

SMILES: CC[C@H](C)[C@@H]1NC(=O)[C@H](Cc2ccc(O)cc2)NC(=O)[C@@H](N)CSSC[C@@H](C(=O)N2CCC[C@H]2C(=O)N[C@@H](CC(C)C)C(=O)NCC(N)=O)NC(=O)[C@H](CC(N)=O)NC(=O)[C@H](CCC(N)=O)NC1=O
- Oxytocic activity [4]: 520 U mg-1
- Antidiuretic activity [5]: 4 U mg-1
- Oxytocic activity [6]: 486 U mg-1

SMILES: COc1ccc(C[C@@H]2NC(=O)CC3(CCCCC3)SSC[C@H](C(=O)N3CCC[C@H]3C(=O)N[C@@H](CCCN=C(N)N)C(=O)NCC(N)=O)NC(=O)[C@H](CC(N)=O)NC(=O)[C@H](CCC(N)=O)NC(=O)[C@H](Cc3ccccc3)NC2=O)cc1
- Kb [7]: 13.5 nM
- Kb [2]: 25.1 nM
- Kb [8]: 13.5 nM
- Kb [9]: 251 nM
- Kb [10]: 2880 nM

SMILES: NC(=O)CC[C@@H]1NC(=O)[C@H](Cc2ccccc2)NC(=O)[C@H](Cc2ccc(O)cc2)NC(=O)[C@@H](N)CSSC[C@H](C(=O)N2CCC[C@H]2C(=O)N[C@@H](CCCN=C(N)N)C(=O)NCC(N)=O)NC(=O)[C@H](CC(N)=O)NC1=O
- Kb [11]: 214 nM
- Kb [12]: 5750 nM
